Target: T1, Tyrosine-protein kinase ZAP-70 (Homo sapiens, UniProt P43403)
T1 sequence (P43403 whole entry): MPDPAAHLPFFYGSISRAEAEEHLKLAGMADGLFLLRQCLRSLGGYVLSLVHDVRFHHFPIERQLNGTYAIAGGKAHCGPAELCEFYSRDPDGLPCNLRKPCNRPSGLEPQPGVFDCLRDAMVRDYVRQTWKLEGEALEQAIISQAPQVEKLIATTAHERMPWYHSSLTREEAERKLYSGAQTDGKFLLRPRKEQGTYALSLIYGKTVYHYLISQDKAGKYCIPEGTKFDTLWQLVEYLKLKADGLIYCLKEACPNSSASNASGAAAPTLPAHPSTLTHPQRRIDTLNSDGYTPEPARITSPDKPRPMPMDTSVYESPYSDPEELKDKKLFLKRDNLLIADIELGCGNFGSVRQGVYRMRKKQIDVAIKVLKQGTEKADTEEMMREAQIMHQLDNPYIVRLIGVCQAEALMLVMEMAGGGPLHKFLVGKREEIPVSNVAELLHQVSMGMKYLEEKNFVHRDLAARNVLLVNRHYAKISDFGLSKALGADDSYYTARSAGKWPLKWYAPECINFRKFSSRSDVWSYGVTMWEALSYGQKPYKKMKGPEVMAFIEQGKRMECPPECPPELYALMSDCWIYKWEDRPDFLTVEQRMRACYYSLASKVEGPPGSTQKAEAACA
Assay: Inhibition Assay
Source text: Inhibition of protein tyrosine kinases

IC50: > 100 µM
SMILES: Cc1ccc(-c2nn(C(C)(C)C)c3ncnc(N)c23)cc1
